# Measured values from publication PMC11638965, “Leveraging Dual-Ligase Recruitment to Enhance Protein Degradation via a Heterotrivalent Proteolysis Targeting Chimera” (Journal of the American Chemical Society, 2024).
# “Also recorded” adds a separate entry of the source.
# Columns and labels:
# [1] = tested on: HiBiT-BRD4 and HaloTag-VHL; test: NanoBRET live cell ternary complex formation assay; format: cell-based, human; details: HiBiT-BRD4 HEK293 cells, MG132 pretreatment, 0.01, 0.1 and 1 μM, 3.5 h
# Protocol: NanoBRET ternary complex assays were performed using Promega kits for CRBN (ND2720) and VHL (ND2700) according to manufacturer’s instructions. One day prior to the assay, HEK293 HiBiT-BRD4 (LgBiT Stable) were plated at a density of 800,000 cells/well in a 6-well plate. Cells were allowed to adhere for at least 4 h. Transfection mixtures containing 100 μL Opti-MEM, 6 μL FuGENE HD, and either 2 μg HaloTag-CRBN or HaloTag-VHL were prepared and allowed to incubate for 10 min at room temperature prior to addition to the cells. The next day, cells were trypsinized and resuspended in phenol red-free Opti-MEM Reduced Serum Medium supplemented with 4% FBS. Cells were counted and density was adjusted to 200,000 cells/mL. Cells were divided into two pools: one which received HaloTag NanoBRET 618 Ligand at a final concentration of 100 nM and one which received the same volume of DMSO. Cells were plated on white tissue-culture 96-well plates (100 μL/well) and allowed to adhere overnight. The next day, media was aspirated from the cells and replaced with phenol red-free Opti-MEM Reduced Serum medium supplemented with 4% FBS and a 1:100 dilution of Nano-Glo Vivazine substrate (Promega) and 10 μM MG132. Luminescence was allowed to equilibrate at 37 °C, 5% CO2 for 1 h. During this time, a dilution series of each PROTAC at 10x the desired final concentration was prepared (keeping DMSO constant in all concentrations). 10 μL of this dilution series was added to the plate after luminescence equilibration, and kinetic measurements of donor emission at 460 nm and acceptor emission at 618 nm were collected every 3 min using a ClarioStar plate reader. milliBRET ratios were calculated as (Emission at 618 nm/Emission at 460 nm) × 1000. Donor-contributed background or bleedthrough was corrected for by subtracting milliBRET ratios from no ligand control cells from treated cells. Corrected milliBRET ratios were plotted as a function of time in GraphPad Prism.
# HEK293 cells = test: TMT mass spectrometry proteomics; format: cell-based, Human; details: 250 nM, 4 h; for proteins significantly depleted/downregulated, proteome-wide: 7276 proteins detected, relative to DMSO
# Protocol: S-Trap micro spin column digestion was performed according to the manufacturer’s protocol. Briefly, HEK293 cells were treated with DMSO, 250 nM neg-cis-AB3067 (95) or 250 nM AB3067 (27) for 4 h; cells were harvested and washed with PBS and spun. Cell pellets were solubilized in 5% SDS, 50 mM triethylammonium bicarbonate, reduced with 100 mM DTT solution and alkylated with iodoacetamide to a final concentration of 40 mM. Aqueous phosphoric acid was added to a final concentration of 1.2%. Protein particulate was formed by adding S-Trap binding buffer [90% aqueous methanol, 100 mM TEAB (pH 7.1)]. The mixture was placed on S-Trap micro 1.7 mL columns and centrifuged at 4000 × g for 10 s. Columns were washed with 150 μL of S-Trap binding buffer five times and centrifuged at 4000 × g for 10 s. Samples were digested with 2 μg of trypsin (Promega) at 37 °C for four h. Peptides were eluted with 40 μL of 50 mM TEAB followed by 40 μL of 0.2% aqueous formic acid, and peptides were finally vacuum-dried. TMT15plex labeling of DMSO, 250 nM neg-cis-AB3067 (95) or 250 nM AB3067 (27) conditions were performed, with five biological replicates for each condition and peptide cleanup was performed according to the manufacturer’s protocol. After checking the labeling efficiency, samples were combined, desalted, and dried under vacuum. TMT samples were fractionated using offline high-pH reverse-phase chromatography. Peptides were separated, concatenated to 22 fractions, dried, and peptides redissolved in 5% formic acid and analyzed by LC–MS.
# The raw mass spectrometric data were loaded into MaxQuant. Enzyme specificity was set to that of trypsin/P, allowing for cleavage of N-terminal to proline residues and between aspartic acid and proline residues. Other parameters used were as follows: (i) variable modifications—methionine oxidation, protein N-acetylation; (ii) fixed modifications, cysteine carbamidomethylation; (iii) database: Uniprot; -Human (iv) labels: 15-plex TMT (v) MS/MS tolerance: FTMS- 20 ppm, (vi) minimum peptide length, 7; (vii) maximum missed cleavages, 2; and (viii) and (ix) PSM and Protein false discovery rate, 1%. Reporter ion intensities (corrected) results from MaxQuant were imported into excel for bioinformatic analysis. The normalized corrected reporter ion intensities for each label were used to calculate ratios, and all “Contaminant,″ “Reverse”, and “Only identified by site” proteins were removed from the data. Proteins above or below twofold change [log2(2) = 1], and a nominal p-value less than 0.03 [−log10(0.03) = 1.5] were considered as differentially expressed proteins. The final volcano plot was produced in GraphPad prism 10 version [10.2.2].
Structure (SMILES),ternary complex formation between BRD4 and VHL (in words) ([1]; listed as 27),CRBN abundance (HEK293 cells),EID2 abundance (HEK293 cells),"proteins significantly depleted/downregulated, proteome-wide (HEK293 cells)",ternary complex formation between BRD4 and VHL (in words) [1]
"Cc1ncsc1-c1ccc([C@H](C)NC(=O)[C@@H]2C[C@@H](O)CN2C(=O)[C@@H](NC(=O)COCC(C)(COCCOCCOCCNc2cc3c(cc2F)C(=O)N(C2CCC(=O)NC2=O)C3=O)COCCOCCOCCOC(=O)C[C@@H]2N=C(c3ccc(Cl)cc3)c3c(sc(C)c3C)-n3c(C)nnc32)C(C)(C)C)cc1 (mixture of isomers) [AB3067 (27), (17S)-11-((2-(2-(2-((2-(2,6-dioxopiperidin-3-yl)-6-fluoro-1,3-dioxoisoindolin-5-yl)amino)ethoxy)ethoxy)ethoxy)methyl)-17-((2S,4R)-4-hydroxy-2-(((S)-1-(4-(4-methylthiazol-5-yl)phenyl)ethyl)carbamoyl)pyrrolidine-1-carbonyl)-11,18,18-trimethyl-15-oxo-3,6,9,13-tetraoxa-16-azanonadecyl 2-((S)-4-(4-chlorophenyl)-2,3,9-trimethyl-6H-thieno[3,2-f][1,2,4]triazolo[4,3-a][1,4]diazepin-6-yl)acetate]",can engage and form ternary complexes; also recorded: more robust dose–response with both VHL and CRBN than 26,not significantly depleted,significantly downregulated,"all three BET proteins, BRD2, BRD3 and BRD4, were significantly depleted",–
"Cc1ncsc1-c1ccc(CNC(=O)[C@@H]2C[C@@H](O)CN2C(=O)[C@@H](NC(=O)COCC(C)(COCCOCCOCCNc2cc3c(cc2F)C(=O)N(C2CCC(=O)NC2=O)C3=O)COCCOCCOCCOC(=O)C[C@@H]2N=C(c3ccc(Cl)cc3)c3c(sc(C)c3C)-n3c(C)nnc32)C(C)(C)C)cc1 (mixture of isomers) [AB3063 (26), (17S)-11-((2-(2-(2-((2-(2,6-dioxopiperidin-3-yl)-6-fluoro-1,3-dioxoisoindolin-5-yl)amino)ethoxy)ethoxy)ethoxy)methyl)-17-((2S,4R)-4-hydroxy-2-((4-(4-methylthiazol-5-yl)benzyl)carbamoyl)pyrrolidine-1-carbonyl)-11,18,18-trimethyl-15-oxo-3,6,9,13-tetraoxa-16-azanonadecyl 2-((S)-4-(4-chlorophenyl)-2,3,9-trimethyl-6H-thieno[3,2-f][1,2,4]triazolo[4,3-a][1,4]diazepin-6-yl)acetate]",–,–,–,–,can engage and form ternary complexes
"Cc1ncsc1-c1ccc([C@H](C)NC(=O)[C@@H]2C[C@H](O)CN2C(=O)[C@@H](NC(=O)COCC(C)(COCCOCCOCCNc2cc3c(cc2F)C(=O)N(C2CCC(=O)N(C)C2=O)C3=O)COCCOCCOCCOC(=O)C[C@@H]2N=C(c3ccc(Cl)cc3)c3c(sc(C)c3C)-n3c(C)nnc32)C(C)(C)C)cc1 (mixture of isomers) [neg-cis-AB3067 (95), (17S)-11-((2-(2-(2-((6-fluoro-2-(1-methyl-2,6-dioxopiperidin-3-yl)-1,3-dioxoisoindolin-5-yl)amino)ethoxy)ethoxy)ethoxy)methyl)-17-((2S,4S)-4-hydroxy-2-(((S)-1-(4-(4-methylthiazol-5-yl)phenyl)ethyl)carbamoyl)pyrrolidine-1-carbonyl)-11,18,18-trimethyl-15-oxo-3,6,9,13-tetraoxa-16-azanonadecyl 2-((S)-4-(4-chlorophenyl)-2,3,9-trimethyl-6H-thieno[3,2-f][1,2,4]triazolo[4,3-a][1,4]diazepin-6-yl)acetate]",–,–,–,no protein was significantly downregulated,–
